Reference: patent publication US20090197880A1 (Genelabs Technologies, Inc., priority 2007, published 2009)

Assay: HCV replicon assay (luciferase) in ET (Huh-lucubineo-ET) cell line
Assay type: cell-based
Settings: Hepatitis C virus; tested at 5 μM; inhibition of replication relative to no compound control; ET replicon cells, luciferase 48-72 hours
Description: A cell line, ET (Huh-lucubineo-ET) was used for screening of compounds, or pharmaceutically acceptable salts or solvates, described herein for inhibition of HCV RNA dependent RNA polymerase. The ET cell line was stably transfected with RNA transcripts harboring a I389luc-ubi-neo/NS3-3′/ET; replicon with firefly luciferase-ubiquitin-neomycin phosphotransferase fusion protein and EMCV-IRES driven NS3-5B polyprotein containing the cell culture adaptive mutations (E1202G; T1280I; K1846T) (Krieger at al, 2001 and unpublished). The ET cells were grown in DMEM, supplemented with 10% fetal calf serum, 2 mM Glutamine, Penicillin (100 IU/mL)/Streptomycin (100 μg/mL), 1× nonessential amino acids, and 250 μg/mL G418 (“Geneticin”). They were all available through Life Technologies (Bethesda, Md.). The cells were plated at 0.5−1.0×10^4 cells/well in the 96 well plates and incubated for 24 hrs before adding the test compounds. […] Luciferase activity was measured 48-72 hours later by adding a lysis buffer and the substrate (Catalog number Glo-lysis buffer E2661 and Bright-Glo luciferase system E2620 Promega, Madison, Wis.). Cells should not be too confluent during the assay. Percent inhibition of replication was plotted relative to no compound control. Under the same condition, cytotoxicity of the compounds was determined using cell proliferation reagent, WST-1 (Roche, Germany). The compounds showing antiviral activities, but no significant cytotoxicities were chosen to determine the EC50 and TC50, the effective concentration and toxic concentration at which 50% of the maximum inhibition is observed. For these determinations, 6 dilutions of each compound were used. Compounds were typically diluted 3 fold to span a concentration range of 250 fold. EC50 and similarly TC50 values were calculated by fitting % inhibition at each concentration to the following equation:
% inhibition=100%/[(EC50/[I])^b+1]
where b is Hill's coefficient.
In the case of Fc1ccccc1-c1nc2cnn(Cc3cc(-c4ccc(C(F)(F)F)cc4C(F)(F)F)no3)cc-2n1 [Compound 114, 5-[3-(2,4-Bis-trifluoromethyl-phenyl)-isoxazol-5-ylmethyl]-2-(2-fluoro-phenyl)-5H-imidazo[4,5-d]pyridazine], the inhibition at 5 µM is reported as 99.3%.
Molecule Fc1ccc(-c2cc(Cn3cc4nc(-c5ccccc5F)nc-4cn3)on2)c(C(F)(F)F)c1 [Compound 115, 2-(2-Fluoro-phenyl)-5-[3-(4-fluoro-2-trifluoromethyl-phenyl)-isoxazol-5-ylmethyl]-5H-imidazo[4,5-d]pyridazine] has an inhibition at 5 µM of 67.6%.
For Fc1ccccc1-c1nc2cnn(Cc3cc(-c4ccc(Cl)cc4)no3)cc-2n1 [Compound 116, 5-[3-(4-Chloro-phenyl)-isoxazol-5-ylmethyl]-2-(2-fluoro-phenyl)-5H-imidazo[4,5-d]pyridazine], the inhibition at 5 µM was 92.1%.
In the case of CCCOc1ccc(-c2cc(Cn3cc4nc(-c5ccccc5F)nc-4cn3)on2)cc1 [Compound 117, 2-(2-Fluoro-phenyl)-5-[3-(4-propoxy-phenyl)-isoxazol-5-ylmethyl]-5H-imidazo[4,5-d]pyridazine], the inhibition at 5 µM is reported as 99.8%.

Same assay, conditions: Hepatitis C virus; tested at 10 μM; inhibition of replication relative to no compound control; ET replicon cells, luciferase 48-72 hours; read-out: % inhition at 10 μM
In the case of Fc1ccccc1-c1nc2cnn(Cc3cc(-c4ccc(C(F)(F)F)cc4C(F)(F)F)no3)cc-2n1 [Compound 114, 5-[3-(2,4-Bis-trifluoromethyl-phenyl)-isoxazol-5-ylmethyl]-2-(2-fluoro-phenyl)-5H-imidazo[4,5-d]pyridazine], the inhibition at 10 µM is reported as 98.5%.
Work on Fc1ccc(-c2cc(Cn3cc4nc(-c5ccccc5F)nc-4cn3)on2)c(C(F)(F)F)c1 [Compound 115, 2-(2-Fluoro-phenyl)-5-[3-(4-fluoro-2-trifluoromethyl-phenyl)-isoxazol-5-ylmethyl]-5H-imidazo[4,5-d]pyridazine] yielded an inhibition at 10 µM of 75.3%.
Molecule Fc1ccccc1-c1nc2cnn(Cc3cc(-c4ccc(Cl)cc4)no3)cc-2n1 [Compound 116, 5-[3-(4-Chloro-phenyl)-isoxazol-5-ylmethyl]-2-(2-fluoro-phenyl)-5H-imidazo[4,5-d]pyridazine] has an inhibition at 10 µM of 92.8%.
For CCCOc1ccc(-c2cc(Cn3cc4nc(-c5ccccc5F)nc-4cn3)on2)cc1 [Compound 117, 2-(2-Fluoro-phenyl)-5-[3-(4-propoxy-phenyl)-isoxazol-5-ylmethyl]-5H-imidazo[4,5-d]pyridazine], the inhibition at 10 µM was 99.1%.
Nc1ccccc1-c1nc2cnn(Cc3cc(-c4ccc(C(F)(F)F)cc4C(F)(F)F)no3)cc-2n1 [Compound 119, 2-{5-[3-(2,4-Bis-trifluoromethyl-phenyl)-isoxazol-5-ylmethyl]-5H-imidazo[4,5-d]pyridazine-2-yl}-phenylamine] gave an inhibition at 10 µM of 0%.
For NC(=O)c1ccccc1-c1nc2cnn(Cc3cc(-c4ccc(C(F)(F)F)cc4C(F)(F)F)no3)cc-2n1 [Compound 133, 2-{5-[3-(2,4-Bis-trifluoromethyl-phenyl)-isoxazol-5-ylmethyl]-5H-imidazo[4,5-d]pyridazin-2-yl}-benzamide], the inhibition at 10 µM was 10.1%.
Molecule Oc1ccccc1-c1nc2cnn(Cc3cc(-c4ccc(C(F)(F)F)cc4C(F)(F)F)no3)cc-2n1 [Compound 134, 2-{5-[3-(2,4-Bis-trifluoromethyl-phenyl)-isoxazol-5-ylmethyl]-5H-imidazo[4,5-d]pyridazin-2-yl}-phenol] has an inhibition at 10 µM of 0.51%.
Work on FC(F)(F)c1ccc(-c2nc3cnn(Cc4cc(-c5ccc(C(F)(F)F)cc5C(F)(F)F)no4)cc-3n2)cc1 [Compound 135, 5-[3-(2,4-Bis-trifluoromethyl-phenyl)-isoxazol-5-ylmethyl]-2-(4-trifluoromethyl-phenyl)-5H-imidazo[4,5-d]pyridazine] yielded an inhibition at 10 µM of 0.79%.
With FC(F)(F)c1ccc(-c2cc(Cn3cc4nc(-c5cccc6[nH]ccc56)nc-4cn3)on2)c(C(F)(F)F)c1 [Compound 136, 5-[3-(2,4-Bis-trifluoromethyl-phenyl)-isoxazol-5-ylmethyl]-2-(1H-indol-4-yl)-5H-imidazo[4,5-d]pyridazine] the inhibition at 10 µM was 5.84%.
CC(=O)c1ccc(F)c(-c2nc3cnn(Cc4cc(-c5ccc(C(F)(F)F)cc5C(F)(F)F)no4)cc-3n2)c1 [Compound 137, 1-(3-{5-[3-(2,4-Bis-trifluoromethyl-phenyl)-isoxazol-5-ylmethyl]-5H-imidazo[4,5-d]pyridazin-2-yl}-4-fluoro-phenyl)-ethanone] showed an inhibition at 10 µM of 40.4%.
With CCCOc1ccc(-c2cc(Cn3cc4nc(-c5ccc(OC)cc5)nc-4cn3)on2)cc1 [Compound 138, 2-(4-Methoxy-phenyl)-5-[3-(4-propoxy-phenyl)-isoxazol-5-ylmethyl]-5H-imidazo[4,5-d]pyridazine] the inhibition at 10 µM was 48.8%.
For FC(F)(F)c1ccc(-c2cc(Cn3cc4nc(-c5ccc6[nH]ccc6c5)nc-4cn3)on2)c(C(F)(F)F)c1 [Compound 139, 5-[3-(2,4-Bis-trifluoromethyl-phenyl)-isoxazol-5-ylmethyl]-2-(1H-indol-5-yl)-5H-imidazo[4,5-d]pyridazine], the inhibition at 10 µM was 51.1%.
Fc1cccc(F)c1-c1nc2cnn(Cc3cc(-c4ccc(C(F)(F)F)cc4C(F)(F)F)no3)cc-2n1 [Compound 140, 5-[3-(2,4-Bis-trifluoromethyl-phenyl)-isoxazol-5-ylmethyl]-2-(2,6-difluoro-phenyl)-5H-imidazo[4,5-d]pyridazine] gave an inhibition at 10 µM of 82.7%.
In the case of FC(F)(F)c1ccc(-c2cc(Cn3cc4nc(-c5ccco5)nc-4cn3)on2)c(C(F)(F)F)c1 [Compound 142, 5-[3-(2,4-Bis-trifluoromethyl-phenyl)-isoxazol-5-ylmethyl]-2-furan-2-yl-5H-imidazo[4,5-d]pyridazine], the inhibition at 10 µM is reported as 66.3%.
For FC(F)(F)c1ccc(-c2cc(Cn3cc4nc(-c5cccs5)nc-4cn3)on2)c(C(F)(F)F)c1 [Compound 143, 5-[3-(2,4-Bis-trifluoromethyl-phenyl)-isoxazol-5-ylmethyl]-2-thiophen-2-yl-5H-imidazo[4,5-d]pyridazine], the inhibition at 10 µM was 96.1%.
With CCCOc1ccc(-c2cc(Cn3cc4nc(-c5ccco5)nc-4cn3)on2)cc1 [Compound 144, 2-Furan-2-yl-5-[3-(4-propoxy-phenyl)-isoxazol-5-ylmethyl]-5H-imidazo[4,5-d]pyridazine] the inhibition at 10 µM was 92.2%.
Work on CCCOc1ccc(-c2cc(Cn3cc4nc(-c5ccc(F)cc5)nc-4cn3)on2)cc1 [Compound 145, 2-(4-Fluoro-phenyl)-5-[3-(4-propoxy-phenyl)-isoxazol-5-ylmethyl]-5H-imidazo[4,5-d]pyridazine] yielded an inhibition at 10 µM of 85.6%.
Work on Fc1cccc(-c2nc3cnn(Cc4cc(-c5ccc(OCc6ccncc6)cc5)no4)cc-3n2)c1F [Compound 148, 2-(2,3-Difluoro-phenyl)-5-{3-[4-(pyridin-4-ylmethoxy)-phenyl]-isoxazol-5-ylmethyl}-H-imidazo[4,5-d]pyridazine] yielded an inhibition at 10 µM of 100%.
Cc1nc(C)c(-c2cc(Cn3cc4nc(-c5cccc(F)c5F)nc-4cn3)on2)s1 [Compound 149, 2-(2,3-Difluoro-phenyl)-5-[3-(2,4-dimethyl-thiazol-5-yl)-isoxazol-5-ylmethyl]-5H-imidazo[4,5-d]pyridazine] showed an inhibition at 10 µM of 43.7%.
In the case of Fc1cccc(-c2nc3cnn(Cc4cc(-c5ccc(CN6CCCCC6)cc5)no4)cc-3n2)c1F [Compound 157, 2-(2,3-Difluoro-phenyl)-5-[3-(4-piperidin-1-ylmethyl-phenyl)-isoxazol-5-ylmethyl]-5H-imidazo[4,5-d]pyridazine], the inhibition at 10 µM is reported as 9.99%.
In the case of Fc1cccc(-c2nc3cnn(Cc4cc(-c5ccc(OCCN6CCCC6)cc5)no4)cc-3n2)c1F [Compound 158, 2-(2,3-Difluoro-phenyl)-5-{3-[4-(2-pyrrolidin-1-yl-ethoxy)-phenyl]-isoxazol-5-ylmethyl}-5H-imidazo[4,5-d]pyridazine], the inhibition at 10 µM is reported as 27.9%.
With O=C(O)c1cccc(COc2ccc(-c3cc(Cn4cc5nc(-c6cccc(F)c6F)nc-5cn4)on3)cc2)c1 [Compound 159, 3-(4-{5-[2-(2,3-Difluoro-phenyl)-imidazo[4,5-d]pyridazin-5-ylmethyl]-isoxazol-3-yl}-phenoxymethyl)-benzoic Acid] the inhibition at 10 µM was 49.4%.
Molecule Fc1ccc(-c2cc(Cn3cc4nc(-c5cccc(F)c5F)nc-4cn3)on2)c(OC(F)(F)F)c1 [Compound 160, 2-(2,3-Difluoro-phenyl)-5-[3-(4-fluoro-2-trifluoromethoxy-phenyl)-isoxazol-5-ylmethyl]-5H-imidazo[4,5-d]pyridazine] has an inhibition at 10 µM of 61.5%.
CN(C)CCOc1ccc(-c2cc(Cn3cc4nc(-c5cccc(F)c5F)nc-4cn3)on2)cc1 [Compound 161, [2-(4-{5-[2-(2,3-Difluoro-phenyl)-imidazo[4,5-d]pyridazin-5-ylmethyl]-isoxazol-3-yl}-phenoxy)-ethyl]-dimethyl-amine] gave an inhibition at 10 µM of 54.6%.
O=C(O)c1ccc(COc2ccc(-c3cc(Cn4cc5nc(-c6cccc(F)c6F)nc-5cn4)on3)cc2)cc1 [Compound 162, 4-(4-{5-[2-(2,3-Difluoro-phenyl)-imidazo[4,5-d]pyridazin-5-ylmethyl]-isoxazol-3-yl}-phenoxymethyl)-benzoic Acid] gave an inhibition at 10 µM of 66.9%.
Molecule COc1cc(-c2cc(Cn3cc4nc(-c5cccc(F)c5F)nc-4cn3)on2)ccc1OC(F)F [Compound 163, 5-[3-(4-Difluoromethoxy-3-methoxy-phenyl)-isoxazol-5-ylmethyl]-2-(2,3-difluoro-phenyl)-5H-imidazo[4,5-d]pyridazine] has an inhibition at 10 µM of 62%.
Fc1cccc(-c2nc3cnn(Cc4cc(-c5cc(C(F)(F)F)cc(C(F)(F)F)c5)no4)cc-3n2)c1F [Compound 164, 5-[3-(3,5-Bis-trifluoromethyl-phenyl)-isoxazol-5-ylmethyl]-2-(2,3-difluoro-phenyl)-5H-imidazo[4,5-d]pyridazine] showed an inhibition at 10 µM of 90.1%.
Fc1cccc(-c2nc3cnn(Cc4cc(-c5ccc(OC(F)(F)F)c(Cl)c5)no4)cc-3n2)c1F [Compound 165, 5-[3-(3-Chloro-4-trifluoromethoxy-phenyl)-isoxazol-5-ylmethyl]-2-(2,3-difluoro-phenyl)-5H-imidazo[4,5-d]pyridazine] gave an inhibition at 10 µM of 79.4%.
